Measurements: BindingDB's records for doi:10.1021/jm00167a014 (Merrell Dow Research Institute, 1990)

Molecular target: Peroxisomal N(1)-acetyl-spermine/spermidine oxidase (Rattus norvegicus)
Test: Tested for in vitro binding affinity against polyamine oxidase after intraperitoneal administration in the rat liver

Ki | SMILES
2500 nM | C=C=CCNCCCNCCCCCCCCNCCCNCC=C=C
3000 nM | C=C=CCNCCCNCCCNCC=C=C
